Test results taken from patent EP3698777A1, “COMPOSITION FOR PREVENTING AND TREATING DEPRESSIVE AND COGNITIVE SYMPTOMS” (NEURAXPHARM ITALY S.P.A., priority 2019, dated 2020).

How the values were obtained:
[1] = ORAC test (Oxygen Radical Absorbance Capacity); details: single ingredients taken at their percentage composition in the combination; combination = 1000 mg fish oil + 600 mg NAC + 30 mg dry saffron extract; Figure 2
Procedure: The ORAC method was used to assess the antioxidant activity of the substances of the invention by measuring the ability to protect the fluorescent probe (fluorescein) from damage due to peroxyl radical generated by spontaneous decomposition of AAPH (2,2'-azobis (2-amidine-propane) dihydrochloride) at 37°C, with consequent loss of fluorescence. The protective effect of the substances of the invention, alone or in combination, was measured by evaluating the longer area of time/fluorescence intensity under the curve (AUC) of the sample compared to the blank (AUC), wherein substances are not present. Trolox was the antioxidant used as the calibration standard, the ORAC results being expressed as Trolox equivalent micromol/gram of sample (i.e. µmol TE/g). […]
The ORAC test was performed by adding 150 µL of working solution with fluorescein to all the microplate wells, followed by the addition of 25 µL of diluted buffer (white), 50 µL of diluted buffer (control), 25 µL of standard (Trolox 6.25 - 50 µM) or 25 µL of the samples prepared before filling the microplate wells. […] The plate was immediately transferred to the plate reader and the fluorescence was measured every minute for 35 minutes. Fluorescence readings refer to the highest reading of the wells in which no AAPH (controls) is added.
The net AUC of the standards and samples were calculated. […]

[2] = test system: Human microglia cells HMC3; experiment: Cell viability test (MTT assay); format: cell-based; details: 24 hours incubation, saffron extract 1 or 3 µg/mL, NAC 200 or 600 µM, fish oil 8.5 or 28.5 µg/mL, Figure 1
Procedure: Human microglia cells HMC3 (ATCC® CRL-3304™) were cultured in EMEM (Eagle's minimum essential medium) containing 10% FBS (fetal bovine serum) and PSG (1000 U/ml of Penicillin, 10000 ug/ml of Streptomycin, 29.2 mg/ml of L-Glutamine). The HMC3 cells were placed in 96-well plates with a density of 40,000 cells/well and let to adhere overnight in an incubator at 37°C, 5% CO2. The cells were then treated or not with different concentrations of the substances of the invention (saffron extract (1 µg/mL or 3 µg/mL), NAC (200 µM or 600 µM) or fish oil (8.5 µg/mL or 28.5 µg/mL) dissolved in EMEM with 10% FBS). After 24 hours incubation, cell viability was determined by MTT assay. Then, 10 µL of MTT (5 mg/mL solution) were added to the cells and incubated for 1 hour, followed by removal of the medium and dissolution of the crystals formed in 100 µL of isopropanol. Absorbance at 570 nm was measured with a spectrophotometer (SEAC SIRIO S) and the cell viability was expressed as a percentage of untreated control cells.

In the case of CC(=O)N[C@@H](CS)C(=O)O [NAC, N-acetylcysteine], the “antioxidant activity (ORAC)” value [1] is reported as 24.04 TE µmol/g and the cell viability [2] is reported as “do not influence the cell viability”.
